Assay results published in patent US20060063782A1, “3-Hetero arylmethoxy ! pyridines and their analogues as p38 map kinase inhibitors” (priority 2002, published 2006).

Target: p38 MAP kinase (Homo sapiens, UniProt Q16539)
Test: p38 MAP Kinase Assay (33P incorporation into myelin basic protein, filter plate)
Assay type: biochemical
Settings: Table 2; MKK6-activated p38, MBP substrate, 50 minutes
Method: The activated p38 is then diluted 1:6 with assay buffer, and 20 μl mixed with 25 μl of MBP mix (300 μl 10×strength assay buffer, 300 μl of 10 mM DTT & 10 mM sodium orthovanadate, 1.7 ml H2O, 50 μCi γ^33P-ATP, 200 μl of myelin basic protein (MBP) (5 mg/ml)) and added to 96 well plates along with 5 μl of various dilutions of the test compound in DMSO (up to 10%). The reaction is allowed to proceed for 50 minutes before being stopped with an excess of ortho-phosphoric acid (30 μl at 2%).
γ^33P-ATP which remains unincorporated into the myelin basic protein is separated from phosphorylated MBP on a Millipore MAPH filter plate. The wells of the MAPH plate are wetted with 0.5% orthophosphoric acid, and then the results of the reaction are filtered with a Millipore vacuum filtration unit through the wells. Following filtration, the residue is washed twice with 200 μl of 0.5% orthophosphoric acid. Once the filters have dried, 25 μl of Microscint 20 scintillant is added, and then counted on a Packard Topcount for 30 seconds.

p38 MAP kinase, sequence (Q16539 whole entry): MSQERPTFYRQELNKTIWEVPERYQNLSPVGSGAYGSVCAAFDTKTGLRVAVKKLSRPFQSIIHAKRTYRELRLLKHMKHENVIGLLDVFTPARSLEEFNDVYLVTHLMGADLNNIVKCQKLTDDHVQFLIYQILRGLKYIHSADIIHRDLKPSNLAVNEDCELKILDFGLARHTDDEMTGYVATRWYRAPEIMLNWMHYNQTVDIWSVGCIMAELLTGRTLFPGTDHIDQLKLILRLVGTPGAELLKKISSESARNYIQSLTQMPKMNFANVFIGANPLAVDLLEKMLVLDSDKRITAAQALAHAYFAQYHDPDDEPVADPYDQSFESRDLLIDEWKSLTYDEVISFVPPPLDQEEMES

SMILES | IC50 [µM]
CC(C)(C)OC(=O)Nc1ccc(Cl)c(COc2cnccn2)c1 [Compound 89] | < 1000
Nc1nccnc1OCc1c(Cl)cccc1Cl [Compound 90] | < 1000
Nc1ccc(Cl)c(COc2cnccn2)c1 [Compound 91] | < 1000
O=C(Nc1ccc(Cl)c(COc2cnccn2)c1)c1ccccc1 [Compound 92, N-[4-Chloro-3-(pyrazin-2-yloxymethyl)-phenyl]-benzamide] | < 20
O=C(Nc1ccc(Cl)c(COc2cnccn2)c1)c1ccnc(N2CCOCC2)c1 [Compound 93, N-[4-Chloro-3-(pyrazin-2-yloxymethyl)-phenyl]-2-morpholin-4-yl-isonicotinamide] | < 2
O=C(Nc1ccc(F)c(COc2cnccn2)c1)c1cccc(S(=O)(=O)N2CCOCC2)c1 [Compound 98, N-[4-Fluoro-3-(pyrazin-2-yloxymethyl)-phenyl]-3-(morpholine-4-sulfonyl)-benzamide] | < 2
O=C(Nc1ccc(F)c(COc2cnccn2)c1)Oc1cccc(C(F)(F)F)c1 [Compound 99, [4-Fluoro-3-(pyrazin-2-yloxymethyl)-phenyl]-carbamic acid 3-trifluoromethyl-phenyl ester] | < 20
O=C(Nc1ccc(F)c(COc2cnccn2)c1)c1cccc(Oc2ccccc2)c1 [Compound 102, N-[4-Fluoro-3-(pyrazin-2-yloxymethyl)-phenyl]-3-phenoxy-benzamide] | < 2
COc1cc(C(=O)Nc2ccc(F)c(COc3cnccn3)c2)nc(Cl)n1 [Compound 105, 2-Chloro-6-methoxy-pyrimidine-4-carboxylic acid [4-fluoro-3-(pyrazin-2-yloxymethyl)-phenyl]-amide] | < 1000
O=C(Nc1ccccc1)Oc1cccc(COc2cnccn2)c1 [Compound 107, Phenyl-carbamic acid 3-(pyrazin-2-yloxymethyl)-phenyl ester] | < 200
c1ccc(CNc2cccc(COc3cnccn3)c2)cc1 [Compound 108] | < 1000
c1cc(COc2cnccn2)cc(Nc2nc3ccccc3o2)c1 [Compound 109] | < 200
Nc1cnc(OCc2c(Cl)cccc2Cl)cn1 [Compound 110] | < 200
CCNC(=O)c1cnc(OCc2c(Cl)cccc2Cl)cn1 [Compound 111, 5-(2,6-Dichloro-benzyloxy)-pyrazine-2-carboxylic acid ethylamide] | < 1000
O=C(NCCO)c1cnc(OCc2c(Cl)cccc2Cl)cn1 [Compound 112, 5-(2,6-Dichloro-benzyloxy)-pyrazine-2-carboxylic acid (2-hydroxy-ethyl)-amide] | < 1000
CC(C)(CO)NC(=O)c1cnc(OCc2c(Cl)cccc2Cl)cn1 [Compound 113, 5-(2,6-Dichloro-benzyloxy)-pyrazine-2-carboxylic acid (2-hydroxy-1,1-dimethyl-ethyl)-amide] | < 20
CCN(CC)C(=O)Nc1cnc(OCc2c(Cl)cccc2Cl)cn1 [Compound 114] | < 200
O=C(Nc1ccc(F)c(COc2cnccn2)c1)Nc1nnc(-c2ccccc2)s1 [Compound 115, 1-[4-Fluoro-3-(pyrazin-2-yloxymethyl)-phenyl]-3-(5-phenyl-[1,3,4]thiadiazol-2-yl)-urea] | < 200
O=C(Nc1ccc(F)c(COc2cnccn2)c1)Nc1cc(-c2ccccc2)[nH]n1 [Compound 118, 1-[4-Fluoro-3-(pyrazin-2-yloxymethyl)-phenyl]-3-(5-phenyl-1H-pyrazol-3-yl)-urea] | < 2
O=C(Nc1ccc(F)c(COc2cnccn2)c1)Nc1n[nH]cc1-c1ccccc1 [Compound 119, 1-[4-Fluoro-3-(pyrazin-2-yloxymethyl)-phenyl]-3-(4-phenyl-1H-pyrazol-3-yl)-urea] | < 20
O=C(Nc1ccc(F)c(COc2cnccn2)c1)Nc1nnc(Cc2ccccc2)s1 [Compound 121, 1-(5-Benzyl-[1,3,4]thiadiazol-2-yl)-3-[4-fluoro-3-(pyrazin-2-yloxymethyl)-phenyl]-urea] | < 2
Cc1noc(-c2ccccc2)c1C(=O)Nc1ccc(F)c(COc2cnccn2)c1 [Compound 122, 3-Methyl-5-phenyl-isoxazole-4-carboxylic acid [4-fluoro-3-(pyrazin-2-yloxymethyl)-phenyl]-amide] | < 200
Cc1nc(-c2cc(C(=O)Nc3ccc(F)c(COc4cnccn4)c3)no2)cs1 [Compound 124, 5-(2-Methyl-thiazol-4-yl)-isoxazole-3-carboxylic acid [4-fluoro-3-(pyrazin-2-yloxymethyl)-phenyl]-amide] | < 200
O=C(Nc1ccc(F)c(COc2cnccn2)c1)c1nnc(-c2ccccc2)o1 [Compound 126, 5-Phenyl-[1,3,4]oxadiazole-2-carboxylic acid [4-fluoro-3-(pyrazin-2-yloxymethyl)-phenyl]-amide] | < 2
O=C(Nc1ccc(F)c(COc2cnccn2)c1)Nc1cc(-c2ccc(Cl)cc2)nn1-c1ccccc1 [Compound 128, 1-[5-(4-Chloro-phenyl)-2-phenyl-2H-pyrazol-3-yl]-3-[4-fluoro-3-(pyrazin-2-yloxymethyl)-phenyl]-urea] | < 2
O=C(Nc1ccc(F)c(COc2cnccn2)c1)c1ccc2ccccc2c1 [Compound 131, Naphthalene-2-carboxylic acid [4-fluoro-3-(pyrazin-2-yloxymethyl)-phenyl]-amide] | < 20
O=C(Nc1ccc(F)c(COc2cnccn2)c1)Nc1cc(-c2ccc(Cl)cc2)nn1-c1ccc(F)cc1 [Compound 132, 1-[5-(4-Chloro-phenyl)-2-(4-fluoro-phenyl)-2H-pyrazol-3-yl]-3-[4-fluoro-3-(pyrazin-2-yloxymethyl)-phenyl]-urea] | < 2
O=C(Nc1ccc(F)c(COc2cnccn2)c1)c1ccc(-c2ccccc2)cc1 [Compound 133, Biphenyl-4-carboxylic acid [4-fluoro-3-(pyrazin-2-yloxymethyl)-phenyl]-amide] | < 200
O=C(Nc1ccc(F)c(COc2cnccn2)c1)Nc1cc(-c2ccccc2)nn1-c1ccccc1 [Compound 134, 1-(2,5-Diphenyl-2H-pyrazol-3-yl)-3-[4-fluoro-3-(pyrazin-2-yloxymethyl)-phenyl]-urea] | < 2

Further lines, results first:

IC50 [µM] | SMILES
< 20 | CC(C)(C)c1cc(NC(=O)Nc2ccc(Cl)c(COc3cnccn3)c2)[nH]n1 [Compound 95]
< 2 | O=C(Nc1ccc(F)c(COc2cnccn2)c1)Nc1nnc(CC2CC2)s1 [Compound 96, 1-(5-Cyclopropylmethyl-[1,3,4]thiadiazol-2-yl)-3-[4-fluoro-3-(pyrazin-2-yloxymethyl)-phenyl]-urea]
< 20 | CC(C)c1nnc(NC(=O)Nc2ccc(F)c(COc3cnccn3)c2)s1 [Compound 97, 1-[4-Fluoro-3-(pyrazin-2-yloxymethyl)-phenyl]-3-(5-isopropyl-[1,3,4]thiadiazol-2-yl)-urea]
< 20 | CC(C)(C)c1csc(NC(=O)Nc2ccc(F)c(COc3cnccn3)c2)n1 [Compound 100, 1-(4-tert-Butyl-thiazol-2-yl)-3-[4-fluoro-3-(pyrazin-2-yloxymethyl)-phenyl]-urea]
< 20 | CC(C)(C)c1ccc(C(=O)Nc2ccc(F)c(COc3cnccn3)c2)cc1 [Compound 101, 4-tert-Butyl-N-[4-fluoro-3-(pyrazin-2-yloxymethyl)-phenyl]-benzamide]
< 2 | CC(C)(C)c1cccc(C(=O)Nc2ccc(F)c(COc3cnccn3)c2)c1 [Compound 103, 3-tert-Butyl-N-[4-fluoro-3-(pyrazin-2-yloxymethyl)-phenyl]-benzamide]
< 2 | CC(C)(C)c1cc(NC(=O)Nc2ccc(F)c(COc3cnccn3)c2)n(-c2ccccc2)n1 [Compound 106, 1-(5-tert-Butyl-2-phenyl-2H-pyrazol-3-yl)-3-[4-fluoro-3-(pyrazin-2-yloxymethyl)-phenyl]-urea]
< 1000 | Cc1cc(C)c2nc(NC(=O)Nc3ccc(F)c(COc4cnccn4)c3)sc2c1 [Compound 116, 1-(4,6-Dimethyl-benzothiazol-2-yl)-3-[4-fluoro-3-(pyrazin-2-yloxymethyl)-phenyl]-urea]
< 2 | O=C(Nc1ccc(F)c(COc2cnccn2)c1)Nc1nnc(C2CCCO2)s1 (stereo not shown) [Compound 120, 1-[4-Fluoro-3-(pyrazin-2-yloxymethyl)-phenyl]-3-[5-(tetrahydro-furan-2-yl)-[1,3,4]thiadiazol-2-yl]-urea]
< 20 | O=C(Nc1ccc(F)c(COc2cnccn2)c1)Nc1nc(-c2ccccc2)cs1 [Compound 123, 1-[4-Fluoro-3-(pyrazin-2-yloxymethyl)-phenyl]-3-(4-phenyl-thiazol-2-yl)-urea]
< 2 | CC(C)(C)c1cc(NC(=O)Nc2ccc(F)c(COc3cnccn3)c2)n(-c2ccc(F)cc2F)n1 [Compound 125, 1-[5-tert-Butyl-2-(2,4-difluoro-phenyl)-2H-pyrazol-3-yl]-3-[4-fluoro-3-(pyrazin-2-yloxymethyl)-phenyl]-urea]
< 2 | CC(C)(C)c1cc(NC(=O)Nc2ccc(F)c(COc3cnccn3)c2)n(-c2ccc(Cl)cc2)n1 [Compound 127, 1-[5-tert-Butyl-2-(4-chloro-phenyl)-2H-pyrazol-3-yl]-3-[4-fluoro-3-(pyrazin-2-yloxymethyl)-phenyl]-urea]
< 20 | CC(C)(C)n1nc(-c2ccccc2)cc1NC(=O)Nc1ccc(F)c(COc2cnccn2)c1 [Compound 129]
< 2 | Cc1ccc(-n2nc(C(C)(C)C)cc2NC(=O)Nc2ccc(F)c(COc3cnccn3)c2)cc1 [Compound 130, 1-(5-tert-Butyl-2-p-tolyl-2H-pyrazol-3-yl)-3-[4-fluoro-3-(pyrazin-2-yloxymethyl)-phenyl]-urea]
